Experimental data from publication PMC10165273, “Itch receptor MRGPRX4 interacts with the receptor activity–modifying proteins” (The Journal of Biological Chemistry, 2023).
pEC50: −log10 of the molar value. Values joined by “and” are separate entries in the source; they are usually repeats but may differ in a detail not shown here. Identical values can stand only once. Like-named read-outs stand apart in the source and are kept apart here.

Tests used:
[1] = target: T1, MRGPRX4 + RAMP3 (Homo sapiens, UniProt Q96LA9); test: IP1 accumulation, MRGPRX4 coexpressed with RAMP3; format: cell-based; set-up: key to IP1 Basal / response to agonist, X4:ramp3.I:0.25 / response to agonist, X4:ramp3.I:0.5 / response to agonist, X4:ramp3.I:1: % IP1; unstimulated mock = 0%, fully stimulated MRGPRX4 = 100%; settings: for pEC50: read-out: IP1 EC50; for Emax: read-out: IP1 Emax; for IP1 accumulation (normalized): MRGPRX4+RAMP3 1pg 1:1, Supplementary Figure 5f, 5g
T1 construct: expressed in transfected cells; host or cells: HEK293T
Protocol: HEK293T cells were transfected with 1 pg/cell of MRGPRX4 DNA, and the amount of DNA was kept constant at 2 pg/cell with pcDNA3.1(+) empty vector, unless otherwise specified. Twenty four hours after transfection, IP1 assay was performed as previously described ([51]). When applicable, cells were treated with 1 μM YM254890 (YM) or different concentrations of U73122 for 1 h prior to addition of agonist or buffer. After incubation for 2 h, HTRF reagents and IP1 calibration standards were added and incubated for 2 h in the dark at room temperature. Time-resolved fluorescence signals were read on the BioTek Synergy NEO-TRF Hybrid multi-mode reader (BioTek Instruments). All data were carried out in three independent experiments with three technical replicate each.
For RAMP DNA titration assay, HEK293T cells were cotransfected with a constant amount of 1 pg/cell of FLAG-MRGPRX4-GFP10-1D4 to which a serial dilution of 1, 0.75, 0.5, 0.25, or 0 pg/cell of each HA-RAMP-OLLAS was added. For a homogenous transfection of MRGPRX4, a master mix of MRGPRX4 DNA was made prior to addition of the RAMP DNA. […]
Data reduction, standard calibration, and transformation of HTRF data were performed as previously described ([51]). Normalized IP1 values were calculated relative to the unstimulated mock-transfected cells (set to 0%) and fully stimulated MRGPRX4 (alone if applicable) (set to 100%).

[2] = system: mock-transfected HEK293T cells; test: IP1 accumulation, mock-transfected cells; format: cell-based, human; set-up: IP1 Basal / IP1 span / IP1 Emax / IP1 accumulation, dose-response (Figure 1a) / IP1 accumulation with YM (Figure 1c) / IP1 accumulation: unit not given here; settings: for IP1 accumulation, dose-response (Figure 1a): pcDNA (mock), individual replicates; for IP1 accumulation: mock, Fig S3a-c
[3] = MRGPRX4 + RAMP3 0.25 pg (Fig. S3), normalized per agonist
[4] = MRGPRX4 + RAMP3 0.5 pg (Fig. S3), normalized per agonist
[5] = MRGPRX4 + RAMP3 1 pg (Fig. S3), normalized per agonist
[6] = MRGPRX4 + RAMP3 2 pg (Fig. S3), normalized per agonist
[7] = Tet-On MRGPRX4:RAMP3 Ratio 1:0.5 (Fig. S5F)
[8] = Tet-On MRGPRX4:RAMP3 Ratio 1:0.75 (Fig. S5F)
[9] = Tet-On MRGPRX4:RAMP3 Ratio 1:1 (Fig. S5F)

T1 sequence (Q96LA9 whole entry): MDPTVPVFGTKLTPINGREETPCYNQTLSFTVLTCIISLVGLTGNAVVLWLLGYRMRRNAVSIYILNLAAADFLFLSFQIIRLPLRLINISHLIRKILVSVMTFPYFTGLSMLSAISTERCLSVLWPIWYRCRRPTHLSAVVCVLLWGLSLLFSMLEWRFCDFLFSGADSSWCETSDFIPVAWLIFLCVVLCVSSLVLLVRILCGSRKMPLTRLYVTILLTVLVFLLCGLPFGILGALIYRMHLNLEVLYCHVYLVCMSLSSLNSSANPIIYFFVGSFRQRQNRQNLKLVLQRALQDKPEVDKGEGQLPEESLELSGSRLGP

CC(C)[C@H]1CC[C@H](C(=O)N[C@H](Cc2ccccc2)C(=O)O)CC1 [Nateglinide]
response to agonist, X4:ramp3.I:0.5 ([1]; Figure 4c-f, agonist 100µM, X4:ramp3 1:0.5, MRGPRX4 = 100): 74.9289 and 71.6542
response to agonist, X4:ramp3.I:1 ([1]; Figure 4c-f, agonist 100µM, X4:ramp3 1:1, MRGPRX4 = 100): 57.9146 and 58.6922
IP1 Basal [1, 3]: 18.35
IP1 span (top minus basal of the concentration-response fit) [1, 3]: 72%
pEC50 [1, 3]: 5.13
Emax [1, 3]: 90.3%
IP1 Basal [1, 4]: 17.78
IP1 span (top minus basal of the concentration-response fit) [1, 4]: 70.5%
pEC50 [1, 4]: 4.98
Emax [1, 4]: 88.3%
IP1 Basal [1, 5]: 13.65
IP1 span (top minus basal of the concentration-response fit) [1, 5]: 76.8%
pEC50 [1, 5]: 4.92
Emax [1, 5]: 90.4%
IP1 Basal [1, 6]: 11.70
IP1 span (top minus basal of the concentration-response fit) [1, 6]: 79.7%
pEC50 [1, 6]: 4.84
Emax [1, 6]: 91.3%
IP1 Basal [1, 7]: 10.08
IP1 span (top minus basal of the concentration-response fit) [1, 7]: 83.3%
pEC50 [1, 7]: 5.14
Emax [1, 7]: 93.4%
IP1 Basal [1, 8]: 8.392
IP1 span (top minus basal of the concentration-response fit) [1, 8]: 72.2%
pEC50 [1, 8]: 5.15
Emax [1, 8]: 80.5%
IP1 Basal [1, 9]: 9.885
IP1 span (top minus basal of the concentration-response fit) [1, 9]: 71.3%
pEC50 [1, 9]: 5.06
Emax [1, 9]: 81.2%
IP1 accumulation (normalized) ([1]; log [nateglinide] (M) -4): 57.5355 and 90.9736 and 62.9483
IP1 accumulation (normalized) ([1]; log [nateglinide] (M) -4.69897): 50.3774 and 62.0079 and 49.4001
IP1 accumulation (normalized) ([1]; log [nateglinide] (M) -5.39794): 23.5136 and 36.2384 and 24.8216
IP1 accumulation (normalized) ([1]; log [nateglinide] (M) -6.09691): 12.0843 and 16.5706 and 10.8044
IP1 accumulation (normalized) ([1]; log [nateglinide] (M) -7.49485): 6.988 and 11.3646 and 7.305
IP1 accumulation, dose-response (Figure 1a) ([2]; log [agonist] (M) -4): 0.2271 and 0.3078 and 0.4629 and -0.5571 and 0.3306 and 0.0456 and 0.8656 and -0.04322 and 0.1347 and -0.9843 and -0.02794 and -0.8867
IP1 accumulation, dose-response (Figure 1a) ([2]; log [agonist] (M) -4.95424): 0.4814 and 0.1593 and 0.9731 and 0.2847 and 0.3905 and 0.01267 and 0.9879 and -0.1469 and 0.1915 and -0.5702 and -0.3086 and -0.9418
IP1 accumulation, dose-response (Figure 1a) ([2]; log [agonist] (M) -5.90849): 0.6831 and 0.2899 and 0.8301 and 0.7307 and 0.1868 and 0.3562 and 0.4874 and 0.05414 and 0.7331 and -0.7448 and -0.08445 and -0.6788
IP1 accumulation, dose-response (Figure 1a) ([2]; log [agonist] (M) -6.86273): 1.046 and 0.7412 and 1.424 and 1.025 and 0.6018 and 0.6703 and 1.266 and 0.6126 and 1.453 and 0.03754 and 0.2747 and 0.1665
IP1 accumulation ([2]; log [Nateglinide] (M) -4): 1.284 and 1.14
IP1 accumulation ([2]; log [Nateglinide] (M) -4.69897): 0.9537 and 0.9999 and 1.07
normalized IP1 accumulation ([2]; pcDNA, log [agonist] (M) -5.39794): 0.47 and 0.5436 and 0.4562
